Structures can show the parent of a compound that is named as a salt.

This assay concerns SD rats. Nature of the assay: Insulin secretion inhibition study using SD rats. Format: in vivo, rat. As to the method: In order to study the inhibitory effect of the compound of Example 5 on the insulin secretion after the stimulation by glucose, blood was withdrawn at various time intervals after the simultaneous intravenous administration of the compound of Example 5 and glucose. Serum insulin concentrations were determined by RIA.
Male rats of SD strain (8 weeks of age, n=3) were weighed and anesthetized by the intraperitoneal administration of 50 mg/kg of pentobarbital. As blood clotting inhibitor 30 mg of EDTA was dissolved in 300 μl of 50,000 units/ml Trasylol (Bayer) solution, and the solution was placed into Eppendorf blood collecting tubes each in quantity of […]. After fixing the rat on the rat fixing apparatus, the unilateral jugular vein was exposed and 100 μl of the blood was withdrawn from the vein by using a 25G injection needle. The test solution for the control group [without glucose] was saline containing 5% propylene glycol and 30% hydroxypropyl-β-cyclodextrin. The test solution for the control group [with glucose] was saline containing 5% propylene glycol, 30% hydroxypropyl-β-cyclodextrin, and 300 mg/kg/ml of glucose. […]
Plasma insulin concentrations were determined by RIA using the rat insulin [125I] assay system (Amersham). […] The radioactivity of the sediment was measured by gamma counter. […]

For the molecule `NCc1cccc(C2OC(CC(=O)NCc3ccccc3F)C(=O)N(Cc3ccc(-c4ccccc4)cc3)c3ccc(Cl)cc32)c1` (stereo not drawn) [Example 5, 3,5-Trans-N-(2-fluorobenzyl)-5-(3-aminomethylphenyl)-1-(4-biphenylmethyl)-7-chloro-2-oxo-1,2,3,5-tetrahydro-4,1-benzoxazepine-3-acetamide•monohydrochloride], where the note is “intravenous 0.003, 0.03, 0.3 or 3 mg/kg with glucose, male SD rats”, the “Elevation of the plasma insulin concentration after glucose” value is “dose-dependently inhibited”. The “Dosage which inhibited the elevation of insulin concentration by 50%” value (simultaneous intravenous administration with glucose, anesthetized male SD rats) is on record as “about 0.03 mg/kg”.

The record behind these values is patent US6352982B1, “4,1-benzoxazepines, their analogues, and their use as somatostatin agonists” (Takeda Chemical Industries, Ltd., priority 1997, dated 2002).
